Test results taken from patent publication US20240139327A1, “PRODRUG COMPOUND, PREPARATION METHOD THEREFOR AND USE THEREOF” (MINGHUI PHARMACEUTICAL (HANGZHOU) LIMITED, priority 2021, published 2024).
Read-outs that look alike come from different tables or passages of the source.

Assay: Skin-Pampa assay
Format: in vitro ADME
Details: for Multiplicity (relative to the prototype drug): Skin-Pampa Pe of prodrug relative to its prototype drug
Experimental: • 1. Hydrate the Skin-Pampa membrane with hydration solution overnight. • 2. Dissolve each compound to be tested in DMSO and prepare 0.5 mL 20 mM solutions of the test compounds. Take 50 uL of solutions of the test compounds to the corresponding 5 mL of donor solution and mix well. • 3. Add 200 μL of the sample solution to the donor (bottom) plate and add 200 μL of acceptor solution into the wells of the acceptor (TOP) plate, and 12 wells are incubated in parallel for each sample. • 4. After 7 hours of incubation, 100 μL of the sample in each of the donor plate and 100 μL of the sample in each of the acceptor plate were sampled and then added with 200 μL of dilution (50% acetonitrile aqueous solution), mixed by vortexing and centrifuged, 200 μL of the supernatant was used for HPLC content detection. • 5. The Skin-Pampa parameters are calculated according to the following equation
[formula] [formula] • Pe—effective permeability coefficient; • VA— the volume of acceptor well (ml); • VD— the volume of donorwell (ml); • A—the filtration area (cm^2); • t—the incubation time (s); • tLAG—the steady-state time (s); • CD(t)—the concentration of the compound in donorwell at t; • CA(t)—the concentration of the compound in acceptor well at t; • CD(0)—the concentration at the compound in donorwell at 0.

[1] = Skin-Pampa, 7 hours of incubation, 12 wells in parallel, HPLC detection
[2] = Skin-Pampa, 7 hours of incubation, 12 wells in parallel, HPLC detection, read-out: Pe (effective permeability coefficient)

| SMILES | Papp at 7 h, 200 µM (PAMPA) [×10⁻⁶ cm/s] | LogPe (PAMPA, 7 h, 200 µM) | Multiplicity (relative to the prototype drug) | LogPe [1] | Papp at 7 h, 200 µM [2] [×10⁻⁶ cm/s] |
| --- | --- | --- | --- | --- | --- |
| CCCCCCCC(=O)OCn1ccc2c(N(C)[C@H]3CN(C(=O)CC#N)CC[C@H]3C)ncnc21 [Example 1] | 1.57 ± 0.5 | −5.80 ± 0.11 | 4.31-4.46 |  |  |
| CCCCC(CC)CCC(=O)OCn1ccc2c(N(C)[C@H]3CN(C(=O)CC#N)CC[C@H]3C)ncnc21 (stereo partly shown) [Example 4] |  |  | 8.25-8.92 | −5.50 ± 0.17 | 3.13 ± 1.15 |
| CCCCCCCCCCCC(=O)OCn1ccc2c(N(C)[C@H]3CN(C(=O)CC#N)CC[C@H]3C)ncnc21 [Example 5] |  |  | 6.88-8.15 | −5.56 ± 0.16 | 2.78 ± 1.13 |
| CCCCCCCCC(=O)OCn1ccc2c(N(C)[C@H]3CN(C(=O)CC#N)CC[C@H]3C)ncnc21 [Example 7] |  |  | 7.38-10.08 | −5.53 ± 0.08 | 2.98 ± 0.56 |
| CCCCCCCCCC(=O)OCn1ccc2c(N(C)[C@H]3CN(C(=O)CC#N)CC[C@H]3C)ncnc21 [Example 8] |  |  | 5.29-7.67 | −5.66 ± 0.08 | 2.19 ± 0.35 |
| CCCCC(CC)CCC(=O)OCn1ccc2c(NC3C4CC5CC3CC(O)(C5)C4)c(C(N)=O)cnc21 (stereo not shown) [Example 13] |  |  | 8.59-15.6 | −6.01 ± 0.19 | 1.07 ± 0.39 |
| CCCCC(CC)CCC(=O)OCn1ccc2c1ncc1ncc([C@H]3CN(C(=O)NCC(F)(F)F)C[C@H]3CC)n12 (stereo partly shown) [Example 14] |  |  | 6.81-8.83 | −6.09 ± 0.19 | 0.81 ± 0.28 |
| CCCCC(CC)CCC(=O)OCn1ccc2c(-c3cnn(C4(CC#N)CN(C5CCN(C(=O)c6ccnc(C(F)(F)F)c6F)CC5)C4)c3)ncnc21 (stereo not shown) [Example 15] |  |  | 5.8-19.5 | −5.90 ± 0.20 | 1.26 ± 0.48 |
| N#CCC1(n2cc(-c3ncnc4[nH]ccc34)cn2)CN(C2CCN(C(=O)c3ccnc(C(F)(F)F)c3F)CC2)C1 [Itacitinib, reference compound] |  |  |  | −6.88 ± 0.34 | 0.13 ± 0.17 |
| NC(=O)c1cnc2[nH]ccc2c1N[C@@H]1[C@@H]2CC3C[C@H]1C[C@@](O)(C3)C2 [Peficitinib, reference compound] |  |  |  | −7.06 ± 0.33 | 0.11 ± 0.06 |
| CN1C(C(=O)Nc2ccccn2)=C(O)c2ccccc2S1(=O)=O [Piroxicam, reference compound] |  |  |  | −5.73 ± 0.06 | 1.84 ± 0.24 |
| C[C@@H]1CCN(C(=O)CC#N)C[C@@H]1N(C)c1ncnc2[nH]ccc12 [Tofacitinib, reference compound] |  |  |  | −6.45 ± 0.14 | 0.36 ± 0.12 |
| CC[C@@H]1CN(C(=O)NCC(F)(F)F)C[C@@H]1c1cnc2cnc3[nH]ccc3n12 [Upadacitinib, reference compound] |  |  |  | −6.96 ± 0.20 | 0.11 ± 0.05 |
